Experimental data: ChEMBL document CHEMBL1130144, “Ras farnesyltransferase: a new therapeutic target” (J Med Chem, 1997)
Blank lines part the entries; values can stand above or below the compound they belong to. Non-standard residues stand in square brackets, D forms with d. Residues, ends and D or L forms follow the SMILES beside them. *: point of attachment. Cbz = O=C(OCc1ccccc1)*; Bn = c1ccc(C*)cc1

Legend:
[1] = target: T1, Protein farnesyltransferase (Homo sapiens, UniProt P49354+P49356); experiment: Inhibitory activity against farnesyl pyrophosphate; assay type: protein-complex assay
[2] = target: Protein farnesyltransferase (Mus musculus) (UniProt Q61239+Q8K2I1); experiment: Inhibition of Ras-processing in H-Ras transformed NIH3T3 fibroblasts; assay type: functional, cell-based
[3] = target: Protein farnesyltransferase (Bos taurus, UniProt P29702+P49355); experiment: Activity against bovine Farnesyltransferase; assay type: protein-complex assay
[4] = target: T1, Protein farnesyltransferase; experiment: Activity against human Farnesyltransferase; assay type: protein-complex assay
[5] = target: T1, Protein farnesyltransferase; experiment: Inhibitory activity against Ras Farnesyltransferase; assay type: protein-complex assay
[6] = target: T1, Protein farnesyltransferase; experiment: Activity against Farnesyltransferase; assay type: protein-complex assay
Farnesyltransferase = target: T2, Farnesyltransferase (Saccharomyces cerevisiae S288c, UniProt P22007+P29703); experiment: Activity against yeast Farnesyltransferase; assay type: protein-complex assay
T2 sequence (P29703 whole entry): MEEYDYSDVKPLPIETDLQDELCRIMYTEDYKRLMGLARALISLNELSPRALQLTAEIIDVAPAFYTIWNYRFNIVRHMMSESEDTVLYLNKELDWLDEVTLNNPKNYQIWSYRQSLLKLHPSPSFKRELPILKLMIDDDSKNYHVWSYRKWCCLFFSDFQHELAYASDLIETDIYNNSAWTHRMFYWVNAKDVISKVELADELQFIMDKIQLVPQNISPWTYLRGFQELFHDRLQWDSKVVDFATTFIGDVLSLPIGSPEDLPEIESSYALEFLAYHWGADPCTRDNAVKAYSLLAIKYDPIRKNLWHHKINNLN
T2 sequence (P22007 whole entry): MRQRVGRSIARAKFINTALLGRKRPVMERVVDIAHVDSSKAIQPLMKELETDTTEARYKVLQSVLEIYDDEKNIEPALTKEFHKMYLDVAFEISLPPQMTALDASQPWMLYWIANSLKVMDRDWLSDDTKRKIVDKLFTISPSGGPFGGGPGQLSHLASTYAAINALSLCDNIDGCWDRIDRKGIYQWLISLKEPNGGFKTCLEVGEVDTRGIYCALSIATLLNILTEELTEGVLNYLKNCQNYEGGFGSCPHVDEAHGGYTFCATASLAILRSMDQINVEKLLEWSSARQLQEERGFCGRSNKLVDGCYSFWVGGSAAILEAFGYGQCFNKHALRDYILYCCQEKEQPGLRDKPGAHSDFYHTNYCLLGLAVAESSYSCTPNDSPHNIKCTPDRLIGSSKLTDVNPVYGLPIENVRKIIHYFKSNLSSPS

[7] = target: Protein farnesyltransferase (Sus scrofa); experiment: Activity against pig Farnesyltransferase
[8] = target: T1, Protein farnesyltransferase; experiment: Inhibition of H-Ras Farnesyltransferase; assay type: protein-complex assay
Homo sapiens = experiment: Inhibition of EJ-1 human bladder carcinoma growth at 100 mg/kg; assay type: functional
[9] = target: Protein farnesyltransferase (Rattus norvegicus, UniProt Q02293+Q04631); experiment: Activity against rat Farnesyltransferase; assay type: protein-complex assay
[10] = target: Geranylgeranyl transferase type I (Homo sapiens, UniProt P49354+P53609); experiment: Activity against Geranylgeranyl transferase type I; assay type: protein-complex assay
NIH3T3 [11] = experiment: Inhibition of Ras processing in v-Ras-transformed NIH 3T3 cell growth in soft agar at 50 uM; assay type: functional, cell-based; conditions: Mus musculus
NIH3T3 [12] = experiment: Activity against H-Ras transformed NIH3T3 fibroblasts in a clonogenic assay; assay type: functional, cell-based; conditions: Mus musculus
Mus musculus = species: Mus musculus; experiment: Percent increase in life span of NIH3T3 cell tumor-bearing nude mice; assay type: functional
[13] = target: T1, Protein farnesyltransferase; experiment: Activity against Ras Farnesyltransferase from human colon carcinoma; assay type: protein-complex assay
[14] = target: T1, Protein farnesyltransferase; experiment: Activity against Ras Farnesyltransferase from Burkett's lymphoma.; assay type: protein-complex assay

Ki [1]: 830 nM
Concentration [2]: 1 µM
Compound: CC(C)=CCC/C(C)=C/CC/C(C)=C/CCP(=O)(O)CP(=O)(O)O

IC50 [3]: 2200 nM
Compound: CCC(=O)O[C@H](C[C@@]1(C)[C@H](C)CCC(=O)[C@@H]1C)/C(C)=C/Cc1c(O)cc(C)c(C=O)c1O [CYLINDROL A]

IC50 [4]: 100 nM
Compound: CCC/C=C\c1ccccc1/C=C/C(=O)N[C@H](Cc1ccc(O)cc1)C(=O)N(C)C(Cc1ccc(OC)c(O)c1Cl)C(=O)N(C)[C@@H](Cc1ccccc1)C(=O)OC[C@@H]1NC(=O)CNC1=O (stereo partly specified)

IC50 [5]: 33 nM
Compound: CC(C)=CCC/C(C)=C/CC/C(C)=C/C(=O)NC(CCC(=O)N[C@H](C(=O)N[C@@H](CC(C)C)C(=O)N[C@@H](CO)C(=O)O)C(C)C)C(=O)O (stereo partly specified)

Compound: CCC(CC(C)C(=O)O)C(=O)CC/C1=C/C(C)C/C(C)=C/C(C)C(O)C(C)CCC(CCCC/C=C/C(C)CCC(C)OC(=O)CC(CC(=O)O)C(=O)O)OC(=O)CC(C(=O)O)CC(=O)OC1 (stereo unspecified) [ACTINOPLANIC ACID A]
IC50 [4]: 230 nM

IC50 [6]: 83 nM
Compound: CC(C)=CCC/C(C)=C/CC/C(C)=C/CNC(=O)C(COP(=O)(O)O)C(=O)O (stereo unspecified)

IC50 [6]: 20 nM
Compound: O=C(N[C@H](Cc1cnc[nH]1)C(=O)N[C@@H](Cc1ccc(OCc2ccccc2)cc1)C(=O)NCCOCc1ccccc1)OCc1ccccc1

IC50 (Farnesyltransferase): 5000 nM
Compound: CCCCC(C)/C=C(C)/C=C(\C)CC(=O)NC1=CC(O)(/C=C/C=C/C=C/C(=O)NC2=C(O)CCC2=O)C2OC2C1=O (stereo unspecified)

IC50 [4]: 60 nM
Compound: CCCCCCCCCCCCCC/C(C(=O)O)=C(\C)C(=O)O [CHAETOMELLIC ACID A]

Compound: COC1=C(N)C(=O)c2nc(-c3nc(C(=O)O)c(C)c(-c4cccc(OC)c4O)c3N)ccc2C1=O
IC50 [6]: 21000 nM

IC50 [7]: 350 nM
Compound: CC(C)=CCC/C(C)=C/CC/C(C)=C/C(=O)C(F)(F)P(=O)(O)O

IC50 [8]: 11 nM
Compound: CSCC[C@H](NC(=O)[C@H](/C=C\[C@@H](/C=C/[C@@H](N)CS)C(C)C)Cc1ccccc1)C(=O)O
inhibition in vivo at 100 mg/kg (Homo sapiens): 60%

IC50 [9]: 0.79 nM
Compound: CSCCC(NC(=O)CN1C(=O)[C@H](N(C)C(=O)[C@H](N)CS)NC(c2ccccc2)c2ccccc21)C(=O)O (stereo partly specified)

IC50 [10]: > 10000 nM
IC50 [3]: 280 nM
Compound: CC[C@@H](C)[C@H](NC[C@@H](NC[C@@H](N)CS)[C@H](C)CC)C(=O)N[C@H]1CCOC1=O
IC50 (NIH3T3 [11]): 50000 nM

Compound: O=C(CN(Cc1ccc(OCc2ccccc2)cc1)C(=O)[C@H](Cc1c[nH]cn1)NC(=O)OCc1ccccc1)NCCc1ccccc1
IC50 [6]: 170 nM
Concentration [2]: 0.1 µM
IC50 (NIH3T3 [12]): 4400 nM
ILS (Mus musculus): 35%

IC50 [13]: 60 nM
IC50 [14]: 120 nM
Compound: CSC[C@H](NC(=O)c1cccc(CNC(=O)[C@@H](N)CS)c1)C(=O)O

IC50 [3]: 1000 nM
Compound: COC(=O)C1=CC(CO)=COc2oc3cccc(O)c3c(=O)c21 [FUSIDIENOL]

IC50 [9]: 0.85 nM
Compound: COC(=O)C(CCSC)NC(=O)CN1C(=O)[C@H](N(C)C(=O)[C@H](N)CS)NC(c2ccccc2)c2ccccc21 (stereo partly specified)

IC50 [3]: 1200 nM
Compound: O=C1C=C[C@]23Oc4ccc(O)c5c4[C@](Oc4cccc1c42)(O3)C1OC1C5=O (stereo partly specified) [PREUSSOMERIN]

IC50 [9]: 2.8 nM
IC50 [10]: 1400 nM
Compound: CC(C)(C)[C@H](NC[C@@H](N)CS)C(=O)N1Cc2ccccc2C[C@H]1C(=O)N[C@@H](CCC(N)=O)C(=O)O

IC50 [6]: 20 nM
Concentration [2]: 25 µM
Compound: C[C@@H](NC(=O)[C@H](Cc1c[nH]c2ccccc12)NC(=O)[C@H](COCc1ccccc1)NC(=O)[C@H](Cc1ccc(OCc2ccccc2)cc1)NC(=O)[C@@H](Cc1c[nH]cn1)NC(=O)OCc1ccccc1)C(N)=O (Cbz-[dH]Y(Bn)S(Bn)W[dA]-NH2)
